Some test systems named below: 786-0; A498; A549; ACHN; CCRF-CEM; HL-60; K562; M14; MCF7; MDA-MB-231; MDA-MB-435; NCI-H460; NCI/ADR-RES; RXF 393; SF-268; SF-539; SK-MEL-2; SK-OV-3; SN12C; SNB-19.
What all share (test): DTP human tumour cell line panel, 48 h

The values that follow come from ChEMBL document CHEMBL1201862, “PubChem BioAssay data set” (2004).

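48-hour exposure; five concentrations; linearly interpolated endpoints. GI50 marks 50% less growth.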 The source made the active and inactive calls. Cut-off read from the data, not from the text of the source: active = GI50 up to about 1.1 µM and inactive = higher.

For `CN(C)c1ccc(/C=C/C=c2/c3ccccc3n3c2cc(-c2ccccc2)[n+]3C)cc1`, the GI50 (commonly the concentration that inhibits growth by half) with 786-0 was 0.252 µM (active); in the assay on A498, 0.387 µM (active); in the assay with A549 it was 0.26 µM (active); in the assay on ACHN it was 0.218 µM (active); with CCRF-CEM, 0.187 µM (active); with HL-60 it was 0.075 µM (active). The GI50 with K562 is 0.0512 µM (active); in the assay on M14, 0.215 µM (active); in the assay on MCF7, 0.0935 µM (active); in the assay with MDA-MB-231, 0.466 µM (active); with MDA-MB-435, 0.151 µM (active); with NCI-H460, 0.307 µM (active). Moreover, the GI50 is 3.43 µM (inactive) in the assay on NCI/ADR-RES; 0.063 µM (active) in the assay with RXF 393; 0.497 µM (active) with SF-268; 0.171 µM (active) in the assay on SF-539; 4.54 µM (inactive) in the assay with SK-MEL-2; 0.348 µM (active) in the assay on SK-OV-3. Further, the GI50 is 0.243 µM (active) with SN12C and 0.127 µM (active) in the assay with SNB-19.

As for `CS(=O)(=O)OC1CCN(C2(c3cccc(O)c3)CCCCC2)CC1`, the GI50 in the assay with 786-0 is 27.4 µM (inactive); in the assay on A498, > 100 µM (inactive); with A549, > 100 µM (inactive); in the assay with ACHN, > 100 µM (inactive); in the assay on CCRF-CEM it was 22.6 µM (inactive); in the assay on HL-60 it was 16.5 µM (inactive). Besides, the GI50 in the assay on K562 was 39.6 µM (inactive); with M14, 43 µM (inactive); in the assay on MCF7, 31.8 µM (inactive); with MDA-MB-231, 73.5 µM (inactive); in the assay on MDA-MB-435, 29.2 µM (inactive); with NCI-H460, 48.5 µM (inactive). Also, the GI50 is 48.1 µM (inactive) in the assay with NCI/ADR-RES; 64.6 µM (inactive) in the assay with RXF 393; 71.3 µM (inactive) in the assay with SF-268; 27.4 µM (inactive) with SF-539; > 100 µM (inactive) with SK-MEL-2; 37 µM (inactive) with SK-OV-3. Also, the figures for the GI50 in the assay with SN12C and with SNB-19 were 32.9 µM (inactive) and > 100 µM (inactive), respectively.

On to `C[S+]([O-])c1cc(=O)c2ccccc2s1` (stereo not given), for which the GI50 with 786-0 was 2.82 µM (inactive); in the assay with A498 it was 11.5 µM (inactive); with A549, 18.5 µM (inactive); with ACHN, 1.91 µM (inactive); in the assay with CCRF-CEM, 1.7 µM (inactive); in the assay with HL-60, 1.99 µM (inactive). The GI50 was 1.82 µM (inactive) in the assay on K562; 1.67 µM (inactive) in the assay with M14; 5.42 µM (inactive) in the assay on MCF7; 12.6 µM (inactive) in the assay with MDA-MB-231; 5.14 µM (inactive) in the assay on MDA-MB-435; 14.9 µM (inactive) with NCI-H460. The GI50 in the assay on NCI/ADR-RES was 16.7 µM (inactive); in the assay on RXF 393 it was 2.94 µM (inactive); in the assay with SF-268 it was 10.2 µM (inactive); with SF-539 it was 9.12 µM (inactive); with SK-MEL-2 it was 10.8 µM (inactive); in the assay on SK-OV-3, 24.5 µM (inactive). Further, the GI50 was 5.79 µM (inactive) in the assay with SN12C and 18.4 µM (inactive) in the assay with SNB-19.

Turning to `CC[C@]12C=CCN3CC[C@@]4(c5cc(N=O)c(OC)cc5N(C)[C@H]4[C@@](O)(C(=O)OC)[C@@H]1OC(C)=O)[C@@H]32`, the GI50 in the assay on 786-0 was 42.9 µM (inactive); in the assay with A498 it was > 100 µM (inactive); in the assay on A549 it was 58.9 µM (inactive); with ACHN it was 61.7 µM (inactive); with CCRF-CEM, 21.6 µM (inactive); with HL-60 it was 37.8 µM (inactive). The GI50 is 46.7 µM (inactive) with K562; 89.5 µM (inactive) in the assay with M14; 24.5 µM (inactive) in the assay on MCF7; 39.4 µM (inactive) with MDA-MB-231; 25.1 µM (inactive) in the assay with MDA-MB-435; 92.3 µM (inactive) in the assay with NCI-H460. Further, the GI50 was > 100 µM (inactive) in the assay with NCI/ADR-RES; 44.1 µM (inactive) in the assay on RXF 393; > 100 µM (inactive) with SF-268; 27.6 µM (inactive) in the assay with SF-539; 18 µM (inactive) with SK-MEL-2; > 100 µM (inactive) in the assay with SK-OV-3. Further, the GI50 is 34.3 µM (inactive) with SN12C and > 100 µM (inactive) in the assay on SNB-19.
